Reference: patent publication US20110269812A1, “NOVEL BENZYLIDENE-INDOLINONE AND THEIR MEDICAL AND DIAGNOSTIC USES” (Agency for Science, Technology and Research, priority 2008, published 2011)

What was measured:
[1] = tested on: Hep3B, Hs817T, PLC/PRF/5 and SK-Hep 1; assay: Cell Titer-Glo viability, panel of 4 additional HCC cell lines; type: cell-based, human
Description: (§1) The efficacy of compound 47 against HCC proliferation was tested on a wider panel of HCC cell lines: Hep3B ([…]), Hs817T (▪), PLC/PRF/5 (▴) and SK-Hep 1 (▾), as determined by Cell Titer-Glo assay.
(§2) Cells were plated at 5000-7000 cells/per well and incubated for 24 h before treatment. […] Cell Titer-Glo (Promega, Madison, Wis.) assay was performed according to manufacturer's instruction with luminescence detected on SpectraMax M5 (Molecular Devices, Sunnyvale, Calif.). Data was expressed as percentage of viability vs. vehicle-treated controls.
(§3) Accordingly, Compound 47 was screened against a larger panel of 4 additional HCC cell lines.

[2] = target: T1, Tyro3 (Homo sapiens, UniProt Q06418); assay: Human phospho-RTK array, HuH7: Tyro-3; type: cell-based; details: 24 h, untreated 0.15
T1 construct: we examined the constitutively phosphorylated IGF-1R, EphA2 and Tyro3; endogenous in cells; host or cells: HuH7
T1 sequence (Q06418 41-890): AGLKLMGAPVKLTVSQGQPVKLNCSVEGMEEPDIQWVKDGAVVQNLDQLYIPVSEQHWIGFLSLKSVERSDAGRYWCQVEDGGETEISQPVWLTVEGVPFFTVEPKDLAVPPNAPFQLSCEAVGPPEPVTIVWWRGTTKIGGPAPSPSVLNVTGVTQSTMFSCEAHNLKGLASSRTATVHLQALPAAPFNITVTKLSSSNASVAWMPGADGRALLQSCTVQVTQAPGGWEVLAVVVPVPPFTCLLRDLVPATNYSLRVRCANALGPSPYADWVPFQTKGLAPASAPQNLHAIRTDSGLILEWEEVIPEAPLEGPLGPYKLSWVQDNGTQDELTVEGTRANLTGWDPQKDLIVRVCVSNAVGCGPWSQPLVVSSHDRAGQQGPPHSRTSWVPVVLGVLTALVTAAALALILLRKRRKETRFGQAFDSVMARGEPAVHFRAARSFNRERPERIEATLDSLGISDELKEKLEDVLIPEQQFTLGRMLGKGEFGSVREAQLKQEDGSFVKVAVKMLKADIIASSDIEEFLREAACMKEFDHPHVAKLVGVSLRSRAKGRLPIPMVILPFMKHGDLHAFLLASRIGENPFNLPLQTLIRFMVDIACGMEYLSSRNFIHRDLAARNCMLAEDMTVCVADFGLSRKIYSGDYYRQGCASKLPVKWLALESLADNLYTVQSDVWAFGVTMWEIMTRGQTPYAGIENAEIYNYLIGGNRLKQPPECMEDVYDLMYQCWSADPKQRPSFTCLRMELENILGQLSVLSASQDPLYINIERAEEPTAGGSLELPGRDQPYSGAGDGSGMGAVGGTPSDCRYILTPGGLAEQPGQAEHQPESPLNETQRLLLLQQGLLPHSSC
Description: (§4) Kinase phosphorylation changes were determined with human phospho-RTK array.
(§5) Cells harvesting, hybridization with RTK array and incubation with anti-phosphotyrosine were performed according to manufacturer's instruction. Imaging and quantification of the spots intensities was with Fujifilm LAS-3000 (Tokyo, Japan). Average signal of the duplicate spots for each RTK was determined.

[3] = tested on: SK-Hep1; assay: Cell Titer-Glo viability, SK-Hep1; type: cell-based; details: Homo sapiens
Description: as §1, §2, §3

[4] = target: T2, IGF-1R (Homo sapiens, UniProt P08069); assay: Immunoblot of phospho-IGF-1R in HuH7; type: cell-based; details: HuH7, 24 h; Compound 47 1, 5 or 10 μM, sunitinib 10 μM
T2 construct: we examined the constitutively phosphorylated IGF-1R, EphA2 and Tyro3; endogenous in cells; host or cells: HuH7
T2 sequence (P08069 31-1367): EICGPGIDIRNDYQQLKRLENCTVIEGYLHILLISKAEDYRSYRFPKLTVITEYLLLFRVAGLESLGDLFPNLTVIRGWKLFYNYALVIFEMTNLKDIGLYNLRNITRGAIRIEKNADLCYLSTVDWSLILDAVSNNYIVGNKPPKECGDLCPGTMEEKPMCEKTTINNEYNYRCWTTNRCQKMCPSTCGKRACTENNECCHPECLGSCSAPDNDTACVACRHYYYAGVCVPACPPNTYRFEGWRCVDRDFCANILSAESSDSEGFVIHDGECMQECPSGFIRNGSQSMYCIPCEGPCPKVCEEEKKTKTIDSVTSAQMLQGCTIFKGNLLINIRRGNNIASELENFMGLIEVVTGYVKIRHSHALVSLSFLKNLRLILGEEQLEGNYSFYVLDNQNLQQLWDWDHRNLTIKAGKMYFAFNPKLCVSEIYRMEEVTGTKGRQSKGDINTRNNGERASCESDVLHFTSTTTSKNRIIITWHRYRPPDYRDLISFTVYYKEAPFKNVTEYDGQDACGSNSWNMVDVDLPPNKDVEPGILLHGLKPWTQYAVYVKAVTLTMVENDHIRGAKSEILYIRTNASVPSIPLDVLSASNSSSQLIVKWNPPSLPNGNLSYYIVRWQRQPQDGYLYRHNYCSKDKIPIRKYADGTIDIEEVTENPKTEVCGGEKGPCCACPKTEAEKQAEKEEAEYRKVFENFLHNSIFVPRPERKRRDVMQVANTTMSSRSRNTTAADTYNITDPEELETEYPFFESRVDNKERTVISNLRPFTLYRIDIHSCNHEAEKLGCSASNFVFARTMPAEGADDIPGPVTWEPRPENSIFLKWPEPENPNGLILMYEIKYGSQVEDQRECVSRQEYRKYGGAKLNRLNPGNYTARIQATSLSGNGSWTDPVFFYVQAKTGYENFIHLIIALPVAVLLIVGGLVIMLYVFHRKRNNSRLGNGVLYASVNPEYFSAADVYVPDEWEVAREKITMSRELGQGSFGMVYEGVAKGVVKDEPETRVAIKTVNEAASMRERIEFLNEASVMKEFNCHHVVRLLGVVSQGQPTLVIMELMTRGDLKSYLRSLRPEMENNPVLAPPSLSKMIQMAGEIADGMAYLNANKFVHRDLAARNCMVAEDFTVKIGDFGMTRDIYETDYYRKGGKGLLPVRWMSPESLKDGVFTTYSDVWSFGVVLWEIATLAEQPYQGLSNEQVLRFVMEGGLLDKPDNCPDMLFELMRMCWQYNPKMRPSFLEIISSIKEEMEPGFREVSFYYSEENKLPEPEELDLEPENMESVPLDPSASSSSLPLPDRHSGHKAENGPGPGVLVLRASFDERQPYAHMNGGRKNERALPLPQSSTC

[5] = tested on: AFP; assay: AFP transcription in HuH7 by quantitative real-time PCR; type: cell-based, human; details: HuH7, 10 μM, 24 h, normalized against 18S mRNA
[6] = target: T3, Met (Homo sapiens, UniProt P08581); assay: Human phospho-RTK array, HuH7: Met; type: cell-based; details: 24 h, untreated 0.05
T3 construct: endogenous in cells; host or cells: HuH7
T3 sequence (P08581 25-1390): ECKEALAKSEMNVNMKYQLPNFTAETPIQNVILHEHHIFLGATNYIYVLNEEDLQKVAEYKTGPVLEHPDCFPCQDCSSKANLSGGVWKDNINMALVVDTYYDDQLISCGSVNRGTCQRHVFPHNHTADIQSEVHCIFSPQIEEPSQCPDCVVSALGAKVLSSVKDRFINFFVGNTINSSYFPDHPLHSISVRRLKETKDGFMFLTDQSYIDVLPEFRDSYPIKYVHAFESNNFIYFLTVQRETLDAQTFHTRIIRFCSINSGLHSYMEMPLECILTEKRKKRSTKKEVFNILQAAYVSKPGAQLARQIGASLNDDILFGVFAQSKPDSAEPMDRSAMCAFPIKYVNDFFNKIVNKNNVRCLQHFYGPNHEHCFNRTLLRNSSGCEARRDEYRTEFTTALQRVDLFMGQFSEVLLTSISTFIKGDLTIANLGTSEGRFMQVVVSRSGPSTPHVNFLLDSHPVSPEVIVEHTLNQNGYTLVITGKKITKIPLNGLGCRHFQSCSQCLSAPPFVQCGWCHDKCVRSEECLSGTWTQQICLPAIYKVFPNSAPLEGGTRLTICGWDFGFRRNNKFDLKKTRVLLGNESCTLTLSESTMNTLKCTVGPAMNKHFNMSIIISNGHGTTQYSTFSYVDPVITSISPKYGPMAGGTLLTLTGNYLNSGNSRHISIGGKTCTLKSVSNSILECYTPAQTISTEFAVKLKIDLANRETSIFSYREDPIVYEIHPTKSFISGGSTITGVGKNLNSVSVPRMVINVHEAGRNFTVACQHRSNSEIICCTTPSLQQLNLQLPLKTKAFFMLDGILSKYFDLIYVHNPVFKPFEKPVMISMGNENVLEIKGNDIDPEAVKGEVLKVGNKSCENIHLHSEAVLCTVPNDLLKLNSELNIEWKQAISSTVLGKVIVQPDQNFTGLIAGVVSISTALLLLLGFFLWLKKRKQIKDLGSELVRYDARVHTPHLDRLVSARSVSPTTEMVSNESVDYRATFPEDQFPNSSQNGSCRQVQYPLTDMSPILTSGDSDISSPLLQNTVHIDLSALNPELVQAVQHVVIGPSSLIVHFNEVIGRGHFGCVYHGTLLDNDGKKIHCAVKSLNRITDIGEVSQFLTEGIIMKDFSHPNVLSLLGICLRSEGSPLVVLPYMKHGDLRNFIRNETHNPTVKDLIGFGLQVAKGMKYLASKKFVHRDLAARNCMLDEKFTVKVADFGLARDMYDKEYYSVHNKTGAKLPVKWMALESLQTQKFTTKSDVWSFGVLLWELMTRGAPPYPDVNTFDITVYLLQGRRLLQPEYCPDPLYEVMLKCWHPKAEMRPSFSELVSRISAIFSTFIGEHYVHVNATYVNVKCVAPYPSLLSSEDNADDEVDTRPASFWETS
Description: as §4, §5

[7] = target: T4, EphA2 (Homo sapiens, UniProt P29317); assay: Human phospho-RTK array, HuH7: EphA2; type: cell-based; details: 24 h, untreated 0.07
T4 construct: we examined the constitutively phosphorylated IGF-1R, EphA2 and Tyro3; endogenous in cells; host or cells: HuH7
T4 sequence (P29317 24-976): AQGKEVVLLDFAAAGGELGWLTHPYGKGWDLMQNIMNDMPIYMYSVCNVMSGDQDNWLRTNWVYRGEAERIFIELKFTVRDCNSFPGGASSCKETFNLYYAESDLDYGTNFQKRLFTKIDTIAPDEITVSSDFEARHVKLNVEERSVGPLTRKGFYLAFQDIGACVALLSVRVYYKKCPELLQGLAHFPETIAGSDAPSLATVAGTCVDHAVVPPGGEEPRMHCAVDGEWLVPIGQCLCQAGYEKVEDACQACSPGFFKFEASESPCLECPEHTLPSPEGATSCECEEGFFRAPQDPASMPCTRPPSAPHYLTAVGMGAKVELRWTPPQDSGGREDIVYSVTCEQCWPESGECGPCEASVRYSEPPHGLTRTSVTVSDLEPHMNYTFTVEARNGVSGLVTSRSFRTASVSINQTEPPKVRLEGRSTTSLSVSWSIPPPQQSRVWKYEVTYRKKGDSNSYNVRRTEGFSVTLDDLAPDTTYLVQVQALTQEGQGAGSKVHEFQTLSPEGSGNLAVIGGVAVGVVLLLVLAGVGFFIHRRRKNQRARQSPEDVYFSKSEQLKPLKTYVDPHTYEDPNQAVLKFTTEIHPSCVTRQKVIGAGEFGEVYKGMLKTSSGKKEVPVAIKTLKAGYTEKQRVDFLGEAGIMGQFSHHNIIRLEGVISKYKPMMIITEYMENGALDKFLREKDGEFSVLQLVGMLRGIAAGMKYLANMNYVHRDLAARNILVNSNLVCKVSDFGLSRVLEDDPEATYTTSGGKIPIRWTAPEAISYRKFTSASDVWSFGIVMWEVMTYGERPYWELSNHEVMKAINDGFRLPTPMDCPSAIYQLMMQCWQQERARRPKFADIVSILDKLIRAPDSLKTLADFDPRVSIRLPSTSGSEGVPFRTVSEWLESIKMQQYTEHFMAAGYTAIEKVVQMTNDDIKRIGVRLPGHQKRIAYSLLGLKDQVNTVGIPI
Description: as §4, §5

[8] = target: T2, IGF-1R; assay: Human phospho-RTK array, HuH7: IGF-1R; type: cell-based; details: 24 h, untreated 0.19
Description: as §4, §5

[9] = tested on: caspase-3; assay: Caspase-3 activity assay in HuH7 and HepG2; type: cell-based, human; details: HuH7 and HepG2, 24 h, Ac-DEVD-AMC hydrolysis
Description: HuH7 (darker bar) and HepG2 (lighter bar) cells treated as described in FIG. 4 were harvested for caspase-3 assay performed by the catalytic hydrolysis of fluorogenic Ac-DEVD-AMC. Results were expressed as a normalized RFU per μg lysate per h of incubation with the AMC substrate (n=3).
Cells were subjected to Compound 47 treatment for 24 h prior to harvesting. Caspase-3 activities were determined by as previously described (Ho HK, Pok S, Streit S, Ruhe J E, Hart S, Lim K S, et al. Fibroblast growth factor receptor 4 regulates proliferation, anti-apoptosis and alpha-fetoprotein secretion during hepatocellular carcinoma progression and represents a potential target for therapeutic intervention. J Hepatol 2009 January; 50(1):118-127). Data were expressed as RFU/μg lysate/h incubation and error bars in terms of SD with n=3.
Next, the mechanism of Compound 47's anti-proliferative effects was investigated. […] However, there was little effect on the mitochondrial apoptotic players Bax and BCL-xL.

[10] = target: T5, Ron (Homo sapiens, UniProt Q04912); assay: Human phospho-RTK array, HuH7: Ron; type: cell-based; details: 24 h, untreated 0.04
T5 construct: endogenous in cells; host or cells: HuH7
T5 sequence (Q04912 25-1400): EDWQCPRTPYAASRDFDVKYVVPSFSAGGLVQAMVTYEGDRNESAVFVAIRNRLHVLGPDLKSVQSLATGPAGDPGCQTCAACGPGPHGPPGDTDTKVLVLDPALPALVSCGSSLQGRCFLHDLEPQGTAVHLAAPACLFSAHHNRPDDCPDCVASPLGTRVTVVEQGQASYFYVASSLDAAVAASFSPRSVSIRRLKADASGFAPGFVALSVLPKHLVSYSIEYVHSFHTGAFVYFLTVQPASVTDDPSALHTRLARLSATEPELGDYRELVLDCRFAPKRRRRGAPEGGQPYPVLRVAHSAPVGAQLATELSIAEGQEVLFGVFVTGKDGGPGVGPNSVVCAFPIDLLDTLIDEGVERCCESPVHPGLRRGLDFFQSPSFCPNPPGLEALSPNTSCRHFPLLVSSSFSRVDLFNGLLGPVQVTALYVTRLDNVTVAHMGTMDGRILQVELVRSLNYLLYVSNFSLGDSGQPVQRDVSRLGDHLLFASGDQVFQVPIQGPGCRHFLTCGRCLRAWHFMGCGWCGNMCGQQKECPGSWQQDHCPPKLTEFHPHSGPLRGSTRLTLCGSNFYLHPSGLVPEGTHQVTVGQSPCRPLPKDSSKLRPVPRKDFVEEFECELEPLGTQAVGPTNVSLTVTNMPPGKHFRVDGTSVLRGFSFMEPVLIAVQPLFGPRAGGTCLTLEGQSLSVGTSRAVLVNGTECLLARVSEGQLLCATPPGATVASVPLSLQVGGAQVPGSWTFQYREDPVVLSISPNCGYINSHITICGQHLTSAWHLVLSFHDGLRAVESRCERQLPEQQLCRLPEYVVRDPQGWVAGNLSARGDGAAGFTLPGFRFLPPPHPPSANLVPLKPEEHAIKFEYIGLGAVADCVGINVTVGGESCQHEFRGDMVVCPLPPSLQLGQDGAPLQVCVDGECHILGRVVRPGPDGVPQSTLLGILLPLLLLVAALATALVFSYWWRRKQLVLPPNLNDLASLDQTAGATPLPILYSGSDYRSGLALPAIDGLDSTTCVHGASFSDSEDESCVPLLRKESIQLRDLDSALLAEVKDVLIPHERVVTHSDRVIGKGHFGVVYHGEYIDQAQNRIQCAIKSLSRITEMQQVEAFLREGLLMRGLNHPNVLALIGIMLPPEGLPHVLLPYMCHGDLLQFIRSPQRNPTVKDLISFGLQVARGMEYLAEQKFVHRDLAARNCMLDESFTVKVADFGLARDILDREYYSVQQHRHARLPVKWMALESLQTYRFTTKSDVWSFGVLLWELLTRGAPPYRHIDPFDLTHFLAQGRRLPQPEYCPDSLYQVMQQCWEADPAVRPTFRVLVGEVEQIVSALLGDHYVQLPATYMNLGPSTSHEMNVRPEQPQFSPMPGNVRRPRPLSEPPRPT
Description: as §4, §5

[11] = target: T1, Tyro3; assay: Immunoprecipitation / anti-phosphotyrosine blot of Tyro3 in HuH7; type: cell-based; details: HuH7, 24 h; Compound 47 1, 5 or 10 μM, sunitinib 10 μM
[12] = target: T4, EphA2; assay: Immunoprecipitation / anti-phosphotyrosine blot of EphA2 in HuH7; type: cell-based; details: HuH7, 24 h; Compound 47 1, 5 or 10 μM, sunitinib 10 μM
[13] = target: T6, Insulin R (Homo sapiens, UniProt P06213); assay: Human phospho-RTK array, HuH7: Insulin R; type: cell-based; details: 24 h, untreated 0.74
T6 construct: endogenous in cells; host or cells: HuH7
Description: as §4, §5

## O=C1Nc2cc(Cl)ccc2/C1=C\c1cccc(C(F)(F)F)c1 [Compound 47, (E)-6-Chloro-3-(3-(trifluoromethyl)benzylidene)indolin-2-one]
[1]
  IC50 in 3 of the 4 additional HCC cell lines tested: low micromolar or submicromolar
[2]; serum starved HuH7, 1 μM
  Tyro-3 Phosphorylation: 0.10 Arbitrary units
[2]; serum starved HuH7, 5 μM
  Tyro-3 Phosphorylation: 0.11 Arbitrary units
[2]; serum starved HuH7, 10 μM
  Tyro-3 Phosphorylation: 0.07 Arbitrary units
[3]
  IC50: > 10 µM
[4]
  IGF-1R phosphorylation (Y980 and Y1135/1136) by immunoblot: proportional reduction
[5]
  AFP transcript vs untreated controls: significantly repressed to one-third
[6]; serum starved HuH7, 1 μM
  Met Phosphorylation: 0.08 Arbitrary units
[6]; serum starved HuH7, 5 μM
  Met Phosphorylation: 0.05 Arbitrary units
[6]; serum starved HuH7, 10 μM
  Met Phosphorylation: 0.02 Arbitrary units
[7]; serum starved HuH7, 1 μM
  EphA2 Phosphorylation: 0.09 Arbitrary units
[7]; serum starved HuH7, 5 μM
  EphA2 Phosphorylation: 0.05 Arbitrary units
[7]; serum starved HuH7, 10 μM
  EphA2 Phosphorylation: 0.02 Arbitrary units
[8]; serum starved HuH7, 1 μM
  IGF-1R Phosphorylation: 0.22 Arbitrary units
[8]; serum starved HuH7, 5 μM
  IGF-1R Phosphorylation: 0.13 Arbitrary units
[8]; serum starved HuH7, 10 μM
  IGF-1R Phosphorylation: 0.07 Arbitrary units
[9]
  caspase-3 activity: activation
[10]; serum starved HuH7, 1 μM
  Ron Phosphorylation: 0.06 Arbitrary units
[10]; serum starved HuH7, 5 μM
  Ron Phosphorylation: 0.05 Arbitrary units
[10]; serum starved HuH7, 10 μM
  Ron Phosphorylation: 0.03 Arbitrary units
[11]
  Tyro3 phosphorylation by immunoblot: inhibited even at the lowest concentration used (1 μM)
[12]
  EphA2 phosphorylation by immunoblot: proportional reduction
[13]; serum starved HuH7, 1 μM
  Insulin R Phosphorylation: 0.75 Arbitrary units
[13]; serum starved HuH7, 5 μM
  Insulin R Phosphorylation: 0.4 Arbitrary units
[13]; serum starved HuH7, 10 μM
  Insulin R Phosphorylation: 0.38 Arbitrary units
